Experimental data as given in ChEMBL document CHEMBL4002559, “Micromonohalimanes A and B: Antibacterial Halimane-Type Diterpenoids from a Marine Micromonospora Species” (2016).
Converted amounts (≈) assume the structure as drawn. The source made the active and inactive calls. The calls are words filed in the database; no cut-off is given here.

Assays:
Staphylococcus aureus [1] = test: Antibacterial activity against methicillin-resistant Staphylococcus aureus ATCC 33591 after 18 hrs by dilution method; type: functional; settings: ATCC 33591, 18 h
Staphylococcus aureus [2] = test: Bacteriostatic activity against methicillin-resistant Staphylococcus aureus ATCC 33591 by LB plate method; type: functional

Compound	MIC (Staphylococcus aureus [1])	Activity (Staphylococcus aureus [2])
CC(=O)O[C@H](C[C@@]1(C)[C@@H]2CCCC(C)(C)C2=CC[C@@H]1C)[C@@]1(O)COC(=O)[C@@H]1O	> 200 µg/mL	
CC(=O)O[C@H]1C(=O)O[C@H](C[C@@]2(C)[C@@H]3CCCC(C)(C)C3=CC[C@@H]2C)[C@]1(O)CCl	40 µg/mL (≈ 96.9 µM)	Active
